Results on 27 compounds are retold here after ChEMBL document CHEMBL1143092, “Identification of novel benzimidazole series of potent and selective ORL1 antagonists” (Bioorg Med Chem Lett, 2008).

Where only a bound is given, the exact number is not on record here.

Data set [1] has as its target T1, Nociceptin receptor (Homo sapiens, UniProt P41146). As to the kind of experiment: Displacement of [125I]Tyr14-NC from human ORL1 receptor expressed in CHO cell membrane. Format: cell membranes. A general note: In a radioligand displacement assay an active substance lowers the binding of a labelled ligand.
Data set [2] deals with T1, Nociceptin receptor. As to the kind of experiment: Antagonist activity at human ORL1 receptor expressed in CHO cell membrane by [35S]GTP-gamma-S binding assay. It is filed as functional, cell membranes.
Data set [3] addresses Mu-type opioid receptor (Homo sapiens, UniProt P35372). As to the kind of experiment: Displacement of [3H]diprenorphin from human cloned mu opioid receptor expressed in CHO cell membrane. Format: cell membranes.
Data set [4] deals with Kappa-type opioid receptor (Homo sapiens, UniProt P41145). The data set can be described thus: Displacement of [3H]U-69593 from human cloned kappa opioid receptor expressed in CHO cell membrane. Format: cell membranes.
Sequence of Kappa-type opioid receptor (P41145 whole entry): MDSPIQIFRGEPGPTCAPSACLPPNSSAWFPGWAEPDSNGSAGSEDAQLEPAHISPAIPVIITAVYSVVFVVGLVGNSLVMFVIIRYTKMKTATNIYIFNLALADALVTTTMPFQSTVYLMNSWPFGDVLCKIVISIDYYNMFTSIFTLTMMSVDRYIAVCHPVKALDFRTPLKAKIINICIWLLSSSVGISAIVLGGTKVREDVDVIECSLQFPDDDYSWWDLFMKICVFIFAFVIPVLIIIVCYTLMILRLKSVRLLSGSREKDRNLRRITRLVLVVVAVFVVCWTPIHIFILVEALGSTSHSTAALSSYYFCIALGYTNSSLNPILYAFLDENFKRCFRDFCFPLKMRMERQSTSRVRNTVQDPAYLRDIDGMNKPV
Data set [5] has as its target Delta-type opioid receptor (Homo sapiens, UniProt P41143). As to the kind of experiment: Displacement of [3H]naltrindole from human cloned delta opioid receptor expressed in CHO cell membrane. It is filed as cell membranes.
Data set [6] relates to Liver microsomes. The data set can be described thus: Metabolic stability in human liver microsomes. It is filed as ADME, Microsome. (In general: Microsomes from liver hold many membrane-bound enzymes, among them those of drug oxidation.)

T1 sequence (P41146 whole entry): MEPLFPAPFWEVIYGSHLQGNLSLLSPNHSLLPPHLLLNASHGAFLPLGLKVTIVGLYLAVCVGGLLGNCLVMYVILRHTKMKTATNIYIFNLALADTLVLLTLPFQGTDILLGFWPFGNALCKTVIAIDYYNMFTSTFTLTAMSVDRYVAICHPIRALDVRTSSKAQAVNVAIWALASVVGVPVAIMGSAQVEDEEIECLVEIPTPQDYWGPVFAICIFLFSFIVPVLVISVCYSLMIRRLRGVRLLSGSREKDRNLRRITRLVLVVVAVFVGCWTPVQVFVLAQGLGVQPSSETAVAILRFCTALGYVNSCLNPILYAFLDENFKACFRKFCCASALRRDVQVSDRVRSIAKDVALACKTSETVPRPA
Sequence of Mu-type opioid receptor (P35372 whole entry): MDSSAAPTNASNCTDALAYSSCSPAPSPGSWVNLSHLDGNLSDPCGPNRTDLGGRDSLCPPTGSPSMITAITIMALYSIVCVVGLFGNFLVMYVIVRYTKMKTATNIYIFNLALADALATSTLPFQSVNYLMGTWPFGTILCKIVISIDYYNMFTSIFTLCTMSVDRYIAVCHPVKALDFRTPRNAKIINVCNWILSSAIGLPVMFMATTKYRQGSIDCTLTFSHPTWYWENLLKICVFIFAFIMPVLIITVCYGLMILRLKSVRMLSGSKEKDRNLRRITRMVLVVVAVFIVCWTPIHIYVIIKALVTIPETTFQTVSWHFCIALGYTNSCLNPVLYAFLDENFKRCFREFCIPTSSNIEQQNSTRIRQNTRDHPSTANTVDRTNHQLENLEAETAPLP
Sequence of Delta-type opioid receptor (P41143 whole entry): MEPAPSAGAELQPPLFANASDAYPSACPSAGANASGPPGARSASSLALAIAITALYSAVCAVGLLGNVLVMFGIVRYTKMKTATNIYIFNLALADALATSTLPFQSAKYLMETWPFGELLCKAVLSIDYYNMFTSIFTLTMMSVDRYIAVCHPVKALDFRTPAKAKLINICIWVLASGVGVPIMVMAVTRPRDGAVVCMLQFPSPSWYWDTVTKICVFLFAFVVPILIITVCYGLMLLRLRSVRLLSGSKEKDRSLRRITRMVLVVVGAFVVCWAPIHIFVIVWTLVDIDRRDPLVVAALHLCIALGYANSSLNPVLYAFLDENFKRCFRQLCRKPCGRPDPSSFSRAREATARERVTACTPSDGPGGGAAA

Regarding `Cc1ccc(CSc2nc3cc(F)c(N4CCNCC4)cc3[nH]2)cc1`, the concentration for half-maximal inhibition (IC50) in data set [1] turned out to be 0.031 µM.
The same measure, in the same setting: the figure for `[O-][S+](Cc1cccc(Cl)c1Cl)c1nc2cc(F)c(N3CCNCC3)cc2[nH]1` (centres undefined) is 2.9 µM.
Same read-out and setting: the figure for `O=S(=O)(Cc1cccc(Cl)c1Cl)c1nc2cc(F)c(N3CCNCC3)cc2[nH]1` is 0.24 µM.
In the case of `Fc1cc2nc(SCC3CCCCC3)[nH]c2cc1N1CCNCC1`, the IC50 in data set [1] came out at 0.017 µM; in data set [2], 0.93 µM.
As for `CCC(CC)Sc1nc2cc(F)c(N3CCNCC3)cc2[nH]1`, the IC50 was determined as 0.0047 µM in data set [1] and 0.69 µM in data set [2].
As for `OCCN1CCN(c2cc3[nH]c(SC4CCCCC4)nc3cc2Cl)CC1`, the IC50 worked out at 0.02 µM in data set [1], 0.02 µM in data set [2], 0.52 µM in data set [3] and 0.031 µM in data set [4].
Regarding `Cc1ccccc1CSc1nc2cc(F)c(N3CCNCC3)cc2[nH]1`, the half-inhibitory concentration (IC50) came to 0.078 µM in data set [1] and 1.7 µM in data set [2].
In data set [1], `Fc1ccc(CSc2nc3cc(F)c(N4CCNCC4)cc3[nH]2)cc1` showed a 50% inhibitory concentration (IC50) of 0.063 µM.
As for `CC(C)(C)Sc1nc2cc(Cl)c(N3CCN(CCO)CC3)cc2[nH]1`, the half-inhibitory concentration (IC50) in data set [1] was determined as 0.017 µM; in data set [2], 0.021 µM; in data set [3] it was 4.4 µM; in data set [4], 0.12 µM.
As to `CCC(C)(CC)Sc1nc2cc(Cl)c(N3CCN(CCO)CC3)cc2[nH]1`, the IC50 in data set [1] is 0.0012 µM; in data set [2] it was 0.00066 µM; in data set [3] it was 2.8 µM; in data set [4], 0.17 µM; in data set [5], above 1 µM.
As to `Fc1cc2nc(SCc3ccccc3Cl)[nH]c2cc1N1CCNCC1`, the 50% inhibitory concentration (IC50) in data set [1] was determined as 0.023 µM; in data set [2] it was 0.38 µM.
The compound `CSc1nc2cc(F)c(N3CCNCC3)cc2[nH]1` came in with an IC50 in data set [1] of 2.9 µM.
`CCC(CC)Sc1nc2ccc(N3CCNCC3)cc2[nH]1` yielded a concentration for half-maximal inhibition (IC50) in data set [1] of 0.32 µM.
With `Fc1cc2nc(SCc3ccccc3)[nH]c2cc1N1CCNCC1`, in data set [1], the IC50 was determined as 0.14 µM. This IC50 lies about 2.3-fold lower than the previous one.
Take `CN1CCN(c2cc3[nH]c(SCc4ccc(F)cc4)nc3cc2F)CC1`: in data set [1], the IC50 was determined as 0.91 µM.
For `CC1(Sc2nc3cc(Cl)c(N4CCN(CCO)CC4)cc3[nH]2)CCCCC1`, the IC50 in data set [1] is 0.0018 µM; in data set [2], 0.0018 µM; in data set [3], 1.4 µM; in data set [4] it was 0.088 µM.
`CC(C)Sc1nc2cc(Cl)c(N3CCN(CCO)CC3)cc2[nH]1`: the IC50 in data set [1] is 0.12 µM; in data set [3], 3.1 µM; in data set [4], 0.06 µM.
Regarding `CCC(CC)Sc1nc2cc(Cl)c(N3CCN(CCO)CC3)cc2[nH]1`, the IC50 was 0.0097 µM in data set [1]; 0.0033 µM in data set [2]; 3.1 µM in data set [3]; 0.06 µM in data set [4]; above 1 µM in data set [5]. Besides, the Stability in data set [6] was 51%.
With `Fc1cc2nc(SCc3c(Cl)cccc3Cl)[nH]c2cc1N1CCNCC1`, the results for the IC50 in data set [1] and in data set [2] were 0.055 µM and 2.7 µM, respectively.
Regarding `CCC(CC)Sc1nc2cc(Cl)c(N3CCN(CC)CC3)cc2[nH]1`, the IC50 in data set [1] turned out to be 0.01 µM; in data set [2], 0.0039 µM. In addition, the Stability in data set [6] came out at 31%.
With `CCC(CC)Sc1nc2cc(C(C)=O)c(N3CCNCC3)cc2[nH]1`, the 50% inhibitory concentration (IC50) in data set [1] was 3.1 µM.
In the case of `Cc1cccc(CSc2nc3cc(F)c(N4CCNCC4)cc3[nH]2)c1`, the half-inhibitory concentration (IC50) in data set [1] turned out to be 0.18 µM. This IC50 is about 17-fold lower than that of the compound before.
In turn, `Fc1ccc(CSc2nc3cc(F)c(N4CCN(Cc5ccccc5)CC4)cc3[nH]2)cc1` showed an IC50 in data set [1] of 8.2 µM.
With `CCC(C)(C)Sc1nc2cc(Cl)c(N3CCN(CCO)CC3)cc2[nH]1`, the half-inhibitory concentration (IC50) stood at 0.0056 µM in data set [1], 0.0025 µM in data set [2], 3.5 µM in data set [3] and 0.16 µM in data set [4].
In turn, `Fc1ccc(CSc2nc3cc(F)c(N4CCN(CC5CCCCCCC5)CC4)cc3[nH]2)cc1` returned a concentration for half-maximal inhibition (IC50) in data set [1] above 10 µM.
On to `Fc1cc2nc(SCc3cccc(Cl)c3Cl)[nH]c2cc1N1CCNCC1`, for which the IC50 in data set [1] is 0.006 µM; in data set [2] it was 0.14 µM.
With `CCC(CC)Sc1nc2cc(C#N)c(N3CCNCC3)cc2[nH]1`, the IC50 in data set [1] was determined as 0.015 µM; in data set [2], 0.078 µM.

By IC50 is commonly meant the midpoint of a concentration-inhibition curve. Read a high IC50 as a need for much substance.
